Entries after “also recorded” stand apart in the source; their conditions may differ.
Tests used:
[1] = system: maternal HIV+ sera (antibodies); test: RIA / ELISA binding of maternal HIV+ sera to gp120 and gp41 peptides (Example 3); set-up: species or system human
In short: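 Peptides were coated at 10 μg/ml in carbonate buffer pH 9.6 and blocked with 1% BSA. Sera at 1:50 and 1:500 were incubated overnight at 4°C and detected with ¹²⁵I anti-human IgG (RIA) or HRP/TMB at OD450 (ELISA). Specific binding was taken as peptide minus no-peptide wells, scored as a ratio to normal human serum.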

[2] = system: maternal serum samples (antibodies); test: ELISA peptide-binding of maternal sera, expanded peptide collection (Example 5); set-up: species or system human; settings: for Binding / reactivity of maternal sera to peptide (in words): Example 5
Description: The gp120 and gp41 peptides used in this experiment include peptides 60 [SEQ ID NO:9], 93 [SEQ ID NO:10], 94 [SEQ ID NO:1], 95 [SEQ ID NO:11], 96 [SEQ ID NO:12], 97 [SEQ ID NO:13], 59 [SEQ ID NO:14], 106 [SEQ ID NO:15], 107 [SEQ ID NO:[…]], 1029/33 [SEQ ID NO:2], p18p [SEQ ID NO:17], B138 [SEQ ID NO:3], 466 [SEQ ID NO:4], 497 [SEQ ID NO:18], 117 [SEQ ID NO:19], F560 [SEQ ID NO:20], 35 [SEQ ID NO:5], 120 [SEQ ID NO:21], 121 [SEQ ID NO:22], 123 [SEQ ID NO:23], 36 [SEQ ID NO:24], 40 [SEQ ID NO:25], 41 [SEQ ID NO:26], 649 [SEQ ID NO:6], 53 [SEQ ID NO:7], 55 [SEQ ID NO:27], 128 [SEQ ID NO:28], 129 [SEQ ID NO:29], 132 [SEQ ID NO:30], 57 [SEQ ID NO:8], and 1103/55 [SEQ ID NO:31] from Table 2. These peptides were synthesized based on the same HIV IIIB isolate as were the peptides of Table 2. Alternative designations for these peptides are provided in brackets.
Each of the peptides was at least 85% pure, making them suitable for ELISA analyses. The average length of these peptides was 18 amino acid residues, which allows for a certain degree of local flexibility and conformational folding, thus facilitating detection of antibody species with reactivities to shaped structures.
The maternal serum samples were obtained from the Mothers/Infants Cohort Study described in Example 1. For the ELISA peptide-binding analyses performed essentially as described in Example 3, maternal serum samples were diluted to 1:50 or 1:500 with blocking buffer (1% bovine serum albumin in phosphate-buffered saline containing 0.05% Tween 20). Binding was measured using 10 μg/mL peptide per well and was considered positive if the experimental/control OD450nm ratio was ≥2. Normal (HIV seronegative) human sera were used as controls.

[3] = Serum No. 1, Non-Transmission Group
[4] = Serum No. 2, Non-Transmission Group
[5] = Serum No. 3, Non-Transmission Group
[6] = Serum No. 4, Transmission Group
[7] = Serum No. 5, Transmission Group
[8] = Serum No. 6, Non-Transmission Group
[9] = Serum No. 7, Non-Transmission Group
[10] = Serum No. 8, Non-Transmission Group
[11] = Serum No. 9, Non-Transmission Group
[12] = Serum No. 10, Transmission Group
[13] = Serum No. 11, Non-Transmission Group
[14] = Serum No. 12, Non-Transmission Group
[15] = Serum No. 13, Transmission Group
[16] = Serum No. 14, Transmission Group
[17] = Serum No. 15, Transmission Group
[18] = Serum No. 16, Non-Transmission Group
[19] = Serum No. 17, Non-Transmission Group
[20] = Serum No. 18, Non-Transmission Group
[21] = Serum No. 19, Transmission Group
[22] = Serum No. 20, Non-Transmission Group

Sequence	Binding of maternal HIV+ serum to peptide (sera/NHS ratio) [1, 3]	Binding of maternal HIV+ serum to peptide (sera/NHS ratio) [1, 4]	Binding of maternal HIV+ serum to peptide (sera/NHS ratio) [1, 5]	Binding of maternal HIV+ serum to peptide (sera/NHS ratio) [1, 6]	Binding of maternal HIV+ serum to peptide (sera/NHS ratio) [1, 7]	Binding of maternal HIV+ serum to peptide (sera/NHS ratio) [1, 8]	Binding of maternal HIV+ serum to peptide (sera/NHS ratio) [1, 9]	Binding of maternal HIV+ serum to peptide (sera/NHS ratio) [1, 10]	Binding of maternal HIV+ serum to peptide (sera/NHS ratio) [1, 11]	Binding of maternal HIV+ serum to peptide (sera/NHS ratio) [1, 12]	Binding of maternal HIV+ serum to peptide (sera/NHS ratio) [1, 13]	Binding of maternal HIV+ serum to peptide (sera/NHS ratio) [1, 14]	Binding of maternal HIV+ serum to peptide (sera/NHS ratio) [1, 15]	Binding of maternal HIV+ serum to peptide (sera/NHS ratio) [1, 16]	Binding of maternal HIV+ serum to peptide (sera/NHS ratio) [1, 17]	Binding of maternal HIV+ serum to peptide (sera/NHS ratio) [1, 18]	Binding of maternal HIV+ serum to peptide (sera/NHS ratio) [1, 19]	Binding of maternal HIV+ serum to peptide (sera/NHS ratio) [1, 20]	Binding of maternal HIV+ serum to peptide (sera/NHS ratio) [1, 21]	Binding / reactivity of maternal sera to peptide (in words) [2]	also measured
LAVERYLKDQQLLGI [Peptide 121]	++ (which value is greater than 3)	- (specific OD450 or cpm of sera sample binding to peptide divided by the specific OD450 or cpm of NHS sample binding to peptide, which value is less than 2)	- (specific OD450 or cpm of sera sample binding to peptide divided by the specific OD450 or cpm of NHS sample binding to peptide, which value is less than 2)	- (specific OD450 or cpm of sera sample binding to peptide divided by the specific OD450 or cpm of NHS sample binding to peptide, which value is less than 2)	- (specific OD450 or cpm of sera sample binding to peptide divided by the specific OD450 or cpm of NHS sample binding to peptide, which value is less than 2)	++ (which value is greater than 3)	- (specific OD450 or cpm of sera sample binding to peptide divided by the specific OD450 or cpm of NHS sample binding to peptide, which value is less than 2)	- (specific OD450 or cpm of sera sample binding to peptide divided by the specific OD450 or cpm of NHS sample binding to peptide, which value is less than 2)	- (specific OD450 or cpm of sera sample binding to peptide divided by the specific OD450 or cpm of NHS sample binding to peptide, which value is less than 2)	- (specific OD450 or cpm of sera sample binding to peptide divided by the specific OD450 or cpm of NHS sample binding to peptide, which value is less than 2)	- (specific OD450 or cpm of sera sample binding to peptide divided by the specific OD450 or cpm of NHS sample binding to peptide, which value is less than 2)	- (specific OD450 or cpm of sera sample binding to peptide divided by the specific OD450 or cpm of NHS sample binding to peptide, which value is less than 2)	- (specific OD450 or cpm of sera sample binding to peptide divided by the specific OD450 or cpm of NHS sample binding to peptide, which value is less than 2)	++ (which value is greater than 3)	++ (which value is greater than 3)	++ (which value is greater than 3)	++ (which value is greater than 3)	++ (which value is greater than 3)	- (specific OD450 or cpm of sera sample binding to peptide divided by the specific OD450 or cpm of NHS sample binding to peptide, which value is less than 2)	recognized by the transmission group	Binding of maternal HIV+ serum to peptide (sera/NHS ratio) [1, 22]: - (specific OD450 or cpm of sera sample binding to peptide divided by the specific OD450 or cpm of NHS sample binding to peptide, which value is less than 2); Percent of the maternal serum samples that bound to the peptide ([1]; all 20 samples): 35%
LGIWGCSGKLIC [Peptide 41-2]																				Virtually all samples reacted; also recorded: recognized by the transmission group	Percent of both groups that bound to the peptide ([2]; transmission and non-transmission groups): 90%
THACVPTDPNPQEVV [Peptide 95]	+ (which value is between 2 to 3)	- (specific OD450 or cpm of sera sample binding to peptide divided by the specific OD450 or cpm of NHS sample binding to peptide, which value is less than 2)	- (specific OD450 or cpm of sera sample binding to peptide divided by the specific OD450 or cpm of NHS sample binding to peptide, which value is less than 2)	- (specific OD450 or cpm of sera sample binding to peptide divided by the specific OD450 or cpm of NHS sample binding to peptide, which value is less than 2)	- (specific OD450 or cpm of sera sample binding to peptide divided by the specific OD450 or cpm of NHS sample binding to peptide, which value is less than 2)	- (specific OD450 or cpm of sera sample binding to peptide divided by the specific OD450 or cpm of NHS sample binding to peptide, which value is less than 2)	- (specific OD450 or cpm of sera sample binding to peptide divided by the specific OD450 or cpm of NHS sample binding to peptide, which value is less than 2)	- (specific OD450 or cpm of sera sample binding to peptide divided by the specific OD450 or cpm of NHS sample binding to peptide, which value is less than 2)	- (specific OD450 or cpm of sera sample binding to peptide divided by the specific OD450 or cpm of NHS sample binding to peptide, which value is less than 2)	- (specific OD450 or cpm of sera sample binding to peptide divided by the specific OD450 or cpm of NHS sample binding to peptide, which value is less than 2)	+ (which value is between 2 to 3)	- (specific OD450 or cpm of sera sample binding to peptide divided by the specific OD450 or cpm of NHS sample binding to peptide, which value is less than 2)	- (specific OD450 or cpm of sera sample binding to peptide divided by the specific OD450 or cpm of NHS sample binding to peptide, which value is less than 2)	++ (which value is greater than 3)	- (specific OD450 or cpm of sera sample binding to peptide divided by the specific OD450 or cpm of NHS sample binding to peptide, which value is less than 2)	- (specific OD450 or cpm of sera sample binding to peptide divided by the specific OD450 or cpm of NHS sample binding to peptide, which value is less than 2)	- (specific OD450 or cpm of sera sample binding to peptide divided by the specific OD450 or cpm of NHS sample binding to peptide, which value is less than 2)	- (specific OD450 or cpm of sera sample binding to peptide divided by the specific OD450 or cpm of NHS sample binding to peptide, which value is less than 2)	- (specific OD450 or cpm of sera sample binding to peptide divided by the specific OD450 or cpm of NHS sample binding to peptide, which value is less than 2)	Differences in binding between the transmission and non-transmission groups are noted	Number of maternal sera binding to peptide ([1]; 20 maternal sera): three; Binding of maternal sera to peptide (in words) ([1]; Example 3): Several maternal serum samples had reactivity; Binding of maternal HIV+ serum to peptide (sera/NHS ratio) [1, 22]: - (specific OD450 or cpm of sera sample binding to peptide divided by the specific OD450 or cpm of NHS sample binding to peptide, which value is less than 2); Number of binding maternal sera from the transmission group ([1]; vertical transmission group (7 sera)): one

From patent US5556744A, “Methods and compositions for diagnosing and treating certain HIV infected patients” (The Trustees of the University of Pennsylvania, priority 1994, dated 1996)
